Data: patent publication US8541476B2, “Compounds for treatment of malignant tumors” (The Trustees of the University of Pennsylvania, priority 2007, dated 2013)
“Also recorded” adds a separate entry of the source.

Legend:
[1] = tested on: HT-29 colorectal cancer cells; experiment: Clonogenic survival assay, HT-29 cells; format: cell-based, human
[2] = tested on: A549 non-small cell lung cancer cells; experiment: Clonogenic survival assay, A549 cells; format: cell-based, human; settings: A549, 5 μM for 12 hours prior to IR
Description: (§1) Clonogenic survival assays were performed as described by Koumenis, et al., 2002, (Mol. Cell Biol. 22:7405-16), which reference is incorporated herein in its entirety. U251, HT-29, or A549 cells were plated at different densities in triplicate, treated with NS-123 or DMSO (alone) and irradiated 4, 8, or 12 hours later with a range of doses using ^137Cs γ-rays at a dose rate of ˜4 Gy/minute (min). One hour after irradiation, the medium was replaced with fresh medium without NS-123 or DMSO. The cells were fixed 7-14 days after IR and stained with crystal violet. Colonies greater than 50 cells were then counted and normalized against the non-irradiated controls for each treatment. […] NHA cells were plated in 24-well plates in quadruplicate at equal density, treated with equal volumes of NS-123 or DMSO (alone) and irradiated as described above. One hour after irradiation, the medium was replaced with fresh ABM. Five days later, the MTS assay was used to evaluate cell survival as above.
To exclude the possibility that the radiosensitizing effect of NS-123 was specific to a single cell line, the radiosensitizing effect of NS-123 was tested on additional cell lines of different tissue origin. Clonogenic survival assays were performed. […]

[3] = tested on: Nontransformed human astrocytes (NHA); experiment: Modified MTS survival assay on normal human astrocytes after IR; format: cell-based; settings: 5 μM, 8 hours or 12 hours pretreatment, versus DMSO
Description: as §1
The objective of any combination of therapeutic agents is to achieve an improved therapeutic result, which is a function both of tumor response and of normal tissue damage. No improvement in the therapeutic result of IR is gained utilizing a drug that increases the sensitivity of both tumor and normal cells to the same extent. […]

[4] = tested on: U251 cells transplanted into ZF embryos; experiment: U251 xenograft ZF model (U251-RFP fluorescence); format: in vivo, Danio rerio
Description: ZF were raised in accordance with previously established protocols (McAleer, et al., 2005, J. Radiat. Oncol. Biol. Phys. 61:10-3) at the University of Pennsylvania School of Medicine. Embryos were maintained at 30° C. after transplantation procedures. The age of embryos is indicated as the hours post-fertilization (hpf) and days post-fertilization (dpf) for all experimental data shown. Embryos were either irradiated with 10 Gy or sham-irradiation as previously described (McAleer, et al., 2005, J. Radiat. Oncol. Biol. Phys. 61:10-3) immediately after photography at 24 hpf. Selected embryos were incubated with NS-123 at a concentration of 30 μM for 14 hours before either irradiation or sham-irradiation.
U251 cells were stably transfected with a RFP construct (pDsRed2-C 1; Clontech, Palo Alto, Calif.). Using a Nanoject II microinjector (Drummond Scientific, Broomall, Pa.) 1-100 cells were transplanted into each ZF embryo still in the chorion, from the high stage of their development (approximately 3.5 hpf) to the oblong-sphere stage (approximately 4.5 hpf). The transplantation site was localized either to the blastodisc approximately halfway between the margin and the animal pole or the center of the embryonic yolk sac. Morphological analysis was performed as previously described (Geiger, et al., 2006, Cancer Res. 66:8172-81). Transplanted embryos were examined under a 100× PlanNeofluor objective mounted on a Nikon TE-200 epifluorescence microscope. Images of embryos bearing RFP-positive cells were captured with a Hammamatsu CCD camera controlled with IP LabSpectrum v2.0.1 software (Scanalytics, Inc., Rockville, Md.). Image analysis and pseudocoloring was performed with Kodak Molecular Imaging software v. 4.0.5 (Kodak, Rochester, N.Y.). […]
Human cancer cells can be transplanted into ZF embryos through microinjection (Lee et al., 2005, Dev. Dyn. […]:1560-1570; Haldi et al., 2006, Angiogenesis 9:139-151; Mizgireuv et al., 2006, Cancer Res. 66:3120-3125). […] The embryos were subsequently examined for fluorescence on sequential days following irradiation.

[5] = NS-123 toxicity evaluation in nu/nu mice; format: in vivo
Description: Female nu/nu (nude) mice (6-8 weeks old; Charles River, Wilmington, Mass.) were maintained at the WFUSM animal facility under conditions approved by the Animal Care and Use Committee. NS-123 in DMSO was mixed with 30% propylene glycol (DMSO concentration<1%) and administered via an i.p. injection at a dose of 50 mg/kg to three mice on three consecutive days. The mice were monitored over 30 days for signs of drug-related toxicity, lethality, and weight loss. Mice were euthanized by CO2 asphyxiation and necropsy was performed by a veterinary pathologist. The heart, lung, liver, spleen, kidney, brain, salivary gland, gastrointestinal tract, ovary, uterus, adrenal gland, and thyroid gland were preserved in 10% neutral buffered formalin for at least 48 hours. The tissues were embedded in paraffin, processed routinely for histology, cut at 4-6 microns, stained with hematoxylin and eosin and examined by light microscopy.
To test this hypothesis, 50 mg/kg (i.p.) was administered to nude mice for 3 consecutive days. Clinical signs of drug toxicity and lethality were not observed over the following 30 days.

In the case of `CCC(=O)c1ccc(Br)c([N+](=O)[O-])c1` [NS-123, 4′-bromo-3′-nitropropiophenone], the “DER at 0.5 survival” value ([1]; HT-29, 5 μM for 12 hours prior to IR) is reported as 3.0, the “DER at 0.1 survival” value ([1]; HT-29, pretreatment with NS-123) is reported as 3.0 and the “DER at 0.1 survival” value [2] is reported as 1.4. The “radiosensitization of normal human glial cells” value [3] was “no significant increase in radiosensitization; also recorded: does not radiosensitize”, the “surviving U251 cells, irradiated in the presence of drug” value ([4]; NS-123 + 10 Gy IR, 5 dpf) was “markedly fewer cells” and the “relative fluorescence versus irradiated-only control” value ([4]; NS-123 + IR, 10 embryos/condition/experiment) was “faster decrease in luminescence”. For the same compound, the “size of U251 xenografts, drug alone” value ([4]; NS-123 alone, 3 or 5 dpf) was “did not have any significant effect on the size”, the “gross and histopathological examination” value ([5]; female, nu/nu (nude), mouse, in vivo, ip, 50 mg/kg) was “did not reveal any evidence suggestive of NS-123 associated toxicity” and the “clinical signs of drug toxicity and lethality” value ([5]; nude mice, 50 mg/kg i.p. 3 consecutive days, 30 days observation) was “not observed”.
